The values that follow come from patent US20020103082A1, “Adjuvant activity through modulation of animal and plant cell membrane transport” (Board of Regents, The University of Texas System, priority 2000, published 2002).

Assay [1] relates to acid phosphatase yeast mutant YMR4. As to the kind of experiment: Salvage pathway experiments in yeast (turbidity). The note with it: added to media with cycloheximide; 72 hours. Format: cell-based, Saccharomyces cerevisiae. The method, then:
All cell lines were grown in liquid media either containing drug (for the drug selected lines) or not containing drug (for the non-drug selected lines). When the cultures reached a turbidity of 1.00 as measured at a wavelength of 600 in a spectrophotometer (OD600=1.00), 10 μl of each culture was then removed and placed in either media with nothing added, 3 mM potassium phosphate; 3 mM adenosine; 9 mM potassium phosphate and 3 mM adenosine (for controls); potassium phosphate and cycloheximide; adenosine and cycloheximide; adenosine, cycloheximide, and potassium phosphate. Cell cultures were further grown for 72 hours, and their turbidity was determined by OD600 readings on a spectrophotometer. Growth of cell lines for nigericin experiments: Drug selected lines were removed from cycloheximide containing plates and placed in 5 ml liquid media containing 5 ng/ml cycloheximide. Cell cultures were allowed to grow until they reached an OD600 reading of 1.00, and then 10 μl from each culture was removed and transferred to culture tubes containing 5 ml of liquid media and 25 μg/ml nigericin. OD600 readings were recorded daily for a period of up to 72 hours to determine growth.

The subject of assay [2] is wild-type Arabidopsis thaliana plants. Briefly: Arabidopsis germination selection assay. Format: in vivo. The note with it: cycloheximide 500 ng/ml alone or phosphatase inhibitor 1 mM alone, after 10-20 days. The method, then: (§1) Arabidopsis seeds were sown in a solid germination media containing MS salts (Sigma Chemical, St. Louis, Mo.), 2% sucrose, 0.8% agar, and vitamins (Valvekens, D. et al., […], Proc. Natl. Acad. Sci. USA 85:5536-5540). For selection assays, one of the following, or a combination of both, was added to media (cooled to less than 50° C. before adding) immediately prior to pouring into plates: cycloheximide at a final concentration of 500 ng/ml; α,β-methyleneadenosine 5′-diphosphate at a final concentration of 1 mM. Plant growth was measured by germination percentage after 10-20 days. All other materials and methods were iscussed above in Example 2.

In assay [3] the test system is AtPGP-1 overexpressing (MDR OE) Arabidopsis thaliana plants. Format: in vivo. The following applies: AtPGP-1 overexpressing plants; cycloheximide 500 ng/ml alone or phosphatase inhibitor 1 mM alone; after 10-20 days. The method, then: as §1
Assay [4] relates to YMR4 yeast mutant deficient in two major extracellular phosphatases. Briefly: Yeast drug selection growth assay. The format is cell-based, Saccharomyces cerevisiae. The method, then:
(§2) Yeast were grown at 30 C under conditions of constant selection for uracil auxotrophy. YNB (BiolOl, Vista, Calif.) supplemented with CSM (uracil dropout) and 2% glucose was used to grow strains having pVT101 constructs. Cycloheximide (Sigma Chemical, St. Louis, Mo.) was added to liquid media or spread on solid media to achieve a final concentration of 500 ng/ml. Nigericin (Sigma Chemical, St. Louis, Mo.) was added to liquid media or spread on solid media to achieve a final concentration of 25 μg/ml. Yeast strains used in cycloheximide selection assays were always propagated in the presence of the cycloheximide on plates and then streaked onto new plates containing drug or no drug, such that induced resistance existed in each strain at the time of the start of the assay. For selection assays on plates, single colonies were streaked; for selection in liquid media 0.01 ml of saturated culture was added to fresh media containing the drug. The plates shown in figures were grown for 3-5 days before photographs were taken. Yeast selection assays in liquid media were quantitated by turbidity as measured by absorbance at OD600.

Assay [5] concerns wild-type yeast strain INVSC1. Briefly: Yeast drug selection growth assay. Format: cell-based, Saccharomyces cerevisiae. The note with it: cycloheximide 500 ng/ml. The method, then:
as §2

Assay [6] has as its system yeast cells (YMR4 and INVSC, with or without AtPGP-1). Format: cell-based, Saccharomyces cerevisiae. The following applies: 100 mM ATP, 48 hours. The method, then: To create drug resistant yeast strains, all four cell lines were grown up in the presence of 500 ng/ml of cycloheximide, and transferred to other cycloheximide containing plates after a period of four to six days. This transfer of cell lines and subculturing continued such that the yeast cells grew in the presence of cycloheximide for a period of at least a month.
Cells cultured in media alone: To create cell lines that had not been preselected for their ability to grow in drug, yeast strains were grown on plates containing YNB (Bio101, Vista, Calif.) without uracil (-URA) to maintain the presence of the vector (which supplies URA) without any drugs added.
Cells were transferred into 5 ml YNB -URA liquid media for turbidity measurements. All cell lines (both non-drug selected and drug-selected) were grown in media with the addition of either nothing, 500 ng/ml cycloheximide, 100 mM ATP, or 500 ng/ml cycloheximide and 100 mM ATP. Turbidity readings were taken after 48 hours.

In assay [7] the test system is wild-type yeast strain INVSC with plasmid pvt101-U. As to the kind of experiment: Increasing yeast sensitivity to fungicide (filter disk zone of inhibition). Format: cell-based, Saccharomyces cerevisiae. The note with it: 48 hours. The method, then:
Additional experiment were performed to test the ability of ecto-phosphatase inhibitors to increase the effectiveness of the commonly used fungicide chlorothalonil. Yeast was plated on media with or without an ecto-phosphatase inhibitor of Formula X where a paper filter disk soaked in the fungicide was added to the plate. After 48 hours, the zone of inhibition of yeast growth around the filter disk was calculated.
The wild-type yeast strain INVSC with plasmid pvt101-U (for selection on media lacking uracil) was used in all experiments and each experiment was performed in triplicate. Media used was made by combining YNB (Bio 101, Vista, Calif.), the drop out supplement CSM-URA (Bio 101, Vista, Calif.), and glucose in water. […]
Twenty μl of an overnight saturated culture of yeast was plated onto each plate, spread, and allowed to dry for 20 minutes. […] The zone of inhibition of yeast growth around the disk was assessed after 48 hours.
Plates with chlorothalonil disks indeed contained a zone of inhibition surrounding the disk. […] The zone of inhibition was calculated by measuring the radius from the center of the disk to the point of noticeable yeast growth (at least 10 measurements per plate), averaging the radii measurements, and using the average radius of the plates to calculate the circular area of the zone of inhibition.

Assay [8] concerns Arabidopsis thaliana WS wild-type plants. As to the kind of experiment: Increasing plant sensitivity to herbicides (adjuvant test). The format is in vivo. The note with it: surflan with compound of Formula II at 5 μg/ml versus surflan alone. The method, then: Arabidopsis thaliana WS wild-type plants were plated on germination media containing two commonly used herbicides, surflan and pendimethalin, in the presence and absence of an ecto-phosphatase inhibitor of Formula II and monitored for their growth in a 22° C. incubator under constant fluorescent illumination.
More specifically, germination media was prepared containing 20 μl/ml, 10 μl/ml, 2 μl/ml, 1 μl/ml, and 0.2 μl/ml of a surflan solution made at the manufacturer's recommended concentration. Compound of Formula II was added to a portion of the germination media at a final concentration of 5 μg/ml.
Arabidopsis thaliana WS wild-type seeds were surface sterilized in a 20% bleach solution for 20 minutes, washed three times in double distilled waster, and resuspended in 0.1% agarose solution. The seeds were then pipetted onto plates containing approximately 3 ml of germination media containing the various concentrations of surflan with and without compound of Formula II. All plates were placed in a 22° C. incubator under constant fluorescent illumination. Growth was assessed daily.

Where two headings read alike, the source gives them in different places.

Consider `O=P(O)(O)O` [phosphate, potassium phosphate], for which, in assay [1], the “effect on growth of cells overexpressing AtPGP-1 in drug” value is reported as “slightly inhibitory” and the “effect on resistance to cycloheximide” value is “did not enhance resistance”.

With `C[C@@H]1C[C@@H]([C@H](O)CC2CC(=O)NC(=O)C2)C(=O)[C@@H](C)C1` [cycloheximide], the germination rate amounted to 2% in assay [2] and 50% in assay [3]. Besides, the growth in drug result in assay [4] (cycloheximide 500 ng/ml) is on record as “did not grow”; in assay [5], “did grow”.

Take `Nc1ncnc2c1ncn2[C@@H]1O[C@H](CO)[C@@H](O)[C@H]1O` [adenosine]: in assay [1], the “effect on growth of cells overexpressing AtPGP-1 in drug” value is reported as “slightly inhibitory” and the “effect on resistance to cycloheximide” value is reported as “did not enhance resistance”.

On to `Nc1ncnc2c1ncn2[C@@H]1O[C@H](COP(=O)(O)OP(=O)(O)OP(=O)(O)O)[C@@H](O)[C@H]1O` [ATP], for which the “growth in high levels of ATP” value was “able to grow” in assay [6] (cells not previously selected in drug) and “not able to grow” in assay [6] (cells previously grown in cycloheximide, not overexpressing AtPGP-1).

For the molecule `CO[C@@H]1C[C@@H](C[C@H]2CC[C@H](C)[C@H]([C@@H](C)C(=O)O)O2)O[C@]2(O[C@](C)([C@H]3CC[C@@](C)([C@@H]4O[C@@H]([C@H]5O[C@@](O)(CO)[C@H](C)C[C@@H]5C)C[C@@H]4C)O3)C[C@H]2C)[C@@H]1C` [nigericin], the growth in drug result in assay [4] (nigericin 25 μg/ml, YMR4 containing vector alone) is “reduced growth”.

`N#Cc1c(Cl)c(Cl)c(Cl)c(C#N)c1Cl` [chlorothalonil] registered an area of inhibition in assay [7] (chlorothalonil by itself) of 0.35 in^2. Moreover, the “average radius of inhibition” value in assay [7] (chlorothalonil disk, plates without ecto-phosphatase inhibitor) stood at 0.33 in.

On to `Cc1cccc(NS(=O)(=O)c2ccc(-c3ccccc3)cc2)c1` [Formula II], for which the “surflan concentration at which it is an equally effective weed killer” value in assay [8] is on record as “five fold less concentration”.

Regarding `Nc1ncnc2c1ncn2[C@@H]1O[C@H](COP(=O)(O)CP(=O)(O)O)[C@@H](O)[C@H]1O` [α,β-methyleneadenosine 5′-diphosphate], the germination rate in assay [2] was 90%; in assay [3], 83%.
